Results as given in patent EP1144369B1 (Wyeth Holdings Corporation, priority 1999, dated 2000).
Where a name gives a salt, the structure may show the parent alone.

Assays:
MMP-13 = MMP-13 (Homo sapiens, UniProt P45452); test: MMP-13 inhibition (thiopeptide or fluorescent peptide substrate); assay type: biochemical
Protocol: (§1) The enzyme activity is measured by the rate of the color increase. The thiopeptide substrate is made up fresh as a 20 mM stock in 100% DMSO and the DTNB is dissolved in 100% DMSO as a 100 mM stock and stored in the dark at room temperature. Both the substrate and DTNB are diluted together to 1 mM with substrate buffer (50 mM HEPES pH 7.5, 5 mM CaCl2) before use. The stock of enzyme is diluted with buffer (50 mM HEPES, pH 7.5, 5 mM CaCl2, 0.02% Brij) to the desired final concentration.
(§2) Alternatively, a fluorescent peptide substrate is used. In this test procedure, the peptide substrate contains a fluorescent group and a quenching group. Upon cleavage of the substrate by an MMP, the fluorescence that is generated is quantitated on the fluorescence plate reader. The assay is run in HCBC assay buffer (50mM HEPES, pH 7.0, 5 mM Ca^+2, 0.02% Brij, 0.5% Cysteine), with human recombinant MMP-1, MMP-9, or MMP-13. The substrate is dissolved in methanol and stored frozen in 1 mM aliquots. For the assay, substrate and enzymes are diluted in HCBC buffer to the desired concentrations. Compounds are added to the 96 well plate containing enzyme and the reaction is started by the addition of substrate.
(§3) For either the thiopeptide or fluorescent peptide test procedures, the slope of the line is calculated and represents the reaction rate. The linearity of the reaction rate is confirmed (r^2 >0.85). The mean (x±sem) of the control rate is calculated and compared for statistical significance (p<0.05) with drug-treated rates using Dunnett's multiple comparison test.

MMP-1 = biological target: T1, MMP-1 (Homo sapiens, UniProt P03956); test: MMP-1 inhibition (thiopeptide or fluorescent peptide substrate); assay type: biochemical; settings: for inhibition at 10 µM: read-out: IC50 (nM) or % Inhibition (µM) MMP-1; for IC50: plain number = IC50
T1 sequence (P03956 100-469): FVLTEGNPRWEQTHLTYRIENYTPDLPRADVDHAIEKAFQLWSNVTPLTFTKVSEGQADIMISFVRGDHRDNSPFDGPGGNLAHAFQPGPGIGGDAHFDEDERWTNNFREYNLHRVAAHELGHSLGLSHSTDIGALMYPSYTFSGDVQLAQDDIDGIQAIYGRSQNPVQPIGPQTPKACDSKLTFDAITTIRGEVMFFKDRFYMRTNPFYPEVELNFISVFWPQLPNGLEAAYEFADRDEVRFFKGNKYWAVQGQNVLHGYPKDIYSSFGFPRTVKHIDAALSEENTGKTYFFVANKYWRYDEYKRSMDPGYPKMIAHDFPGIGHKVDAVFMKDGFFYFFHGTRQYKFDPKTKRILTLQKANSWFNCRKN
Protocol: as §1, §2, §3

MMP-9 = MMP-9 (Homo sapiens, UniProt P14780); test: MMP-9 inhibition (thiopeptide or fluorescent peptide substrate); assay type: biochemical
Chain of MMP-9 (P14780 94-707): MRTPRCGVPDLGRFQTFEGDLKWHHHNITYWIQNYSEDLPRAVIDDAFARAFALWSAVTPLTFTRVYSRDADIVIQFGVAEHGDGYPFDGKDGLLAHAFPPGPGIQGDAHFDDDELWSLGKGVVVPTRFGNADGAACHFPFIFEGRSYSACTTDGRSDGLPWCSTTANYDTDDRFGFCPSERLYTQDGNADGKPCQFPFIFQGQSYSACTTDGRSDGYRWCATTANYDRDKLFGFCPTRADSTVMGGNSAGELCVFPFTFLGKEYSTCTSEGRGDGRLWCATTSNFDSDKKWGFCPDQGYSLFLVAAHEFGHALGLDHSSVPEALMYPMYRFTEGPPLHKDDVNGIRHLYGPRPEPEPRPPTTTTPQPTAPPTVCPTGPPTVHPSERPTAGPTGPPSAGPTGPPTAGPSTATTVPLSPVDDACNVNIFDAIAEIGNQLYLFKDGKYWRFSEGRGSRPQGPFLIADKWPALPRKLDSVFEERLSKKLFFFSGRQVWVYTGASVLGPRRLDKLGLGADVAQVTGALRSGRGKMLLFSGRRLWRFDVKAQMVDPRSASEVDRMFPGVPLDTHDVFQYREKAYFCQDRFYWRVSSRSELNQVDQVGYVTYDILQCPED
Protocol: as §1, §2, §3

[1] = biological target: TNF-α converting enzyme (TACE) (Homo sapiens, UniProt P78536); test: TACE inhibition (fluorescent peptidyl substrate); assay type: biochemical; settings: read-out: IC50 (nM) or % Inhibition (µM) TACE
Chain of TNF-α converting enzyme (TACE) (P78536 215-824, species assumed): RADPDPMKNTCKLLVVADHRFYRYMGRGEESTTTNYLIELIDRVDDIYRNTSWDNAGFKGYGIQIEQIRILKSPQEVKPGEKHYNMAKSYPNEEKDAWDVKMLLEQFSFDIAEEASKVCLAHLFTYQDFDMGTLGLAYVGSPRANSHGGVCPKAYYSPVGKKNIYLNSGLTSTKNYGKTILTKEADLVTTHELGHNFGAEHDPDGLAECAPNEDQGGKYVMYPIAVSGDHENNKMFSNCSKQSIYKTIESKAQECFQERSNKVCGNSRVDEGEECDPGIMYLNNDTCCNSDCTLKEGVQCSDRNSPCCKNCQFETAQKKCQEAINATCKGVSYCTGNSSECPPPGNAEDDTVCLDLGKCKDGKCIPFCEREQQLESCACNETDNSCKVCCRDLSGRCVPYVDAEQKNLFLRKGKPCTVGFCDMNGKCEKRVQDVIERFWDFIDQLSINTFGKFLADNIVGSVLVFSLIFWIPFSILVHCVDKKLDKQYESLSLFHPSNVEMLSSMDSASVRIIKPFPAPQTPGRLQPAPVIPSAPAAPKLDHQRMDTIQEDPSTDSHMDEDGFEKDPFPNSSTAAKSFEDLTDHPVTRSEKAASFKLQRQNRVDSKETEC
Protocol: Using 96-well black microtiter plates, each well receives a solution composed of 10 µL TACE (final concentration 1µg/mL), 70µL Tris buffer, pH 7.4 containing 10% glycerol (final concentration 10 mM), and 10 µL of test compound solution in DMSO (final concentration 1µM, DMSO concentration <1%) and incubated for 10 minutes at room temperature. The reaction is initiated by addition of a fluorescent peptidyl substrate (final concentration 100 µM) to each well and then shaking on a shaker for 5 sec.
The reaction is read (excitation 340 nm, emission 420 nm) for 10 min. and the increase in fluorescence over time is plotted as a linear line. The slope of the line is calculated and represents the reaction rate.
The linearity of the reaction rate is confirmed (r^2 >0.85). The mean (x±sem) of the control rate is calculated and compared for statistical significance (p<0.05) with drug-treated rates using Dunnett's multiple comparison test.

THP-1 cells = test: THP-1 soluble protein assay (LPS-stimulated human monocytic THP-1 cells); assay type: cell-based; settings: Homo sapiens, LPS-stimulated THP-1 cells, read-out: % Inhib. @ 3µM THP
Description: Mitogenic stimulation of THP-1 cells cause differentiation into macrophage like cells with concomitant secretion of tumor necrosis factor (TNF-a) and TNF receptor (TNF-R p75/80 and TNF-R p55/60) and Interleukin-8 (IL-8), among other proteins. In addition, non-stimulated THP-1 cells shed both the p75/80 and the p55/60 receptors over time. The release of membrane bound TNF-α and possibly TNF-R p75/80 and TNF-R p55/60, but not IL-8, is mediated by an enzyme called TNF-a converting enzyme or TACE.
THP-1 cells (from ATCC) are a human monocytic cell line which were obtained from the peripheral blood of a person with acute monocytic leukemia. They can be grown in culture and differentiated into macrophage like cells by stimulation with mitogens.
Each vial of cells are cultured for about two weeks prior to being used for an assay and then are used for only 4 to 6 weeks to screen compounds.
Cell exposure to DMSO was limited to 0.1 % final concentration. […] Compounds can be evaluated for their effect on basal (non-stimulated) shedding of the receptors by replacing the LPS with […] of THP-1 media. Plates are placed into an incubator set at 5% CO2 and at 37°C. After 4 hours of incubation, […] of tissue culture supernatant (TCS) is removed for use in an TNF-a ELISA. Following 24 hours of incubation, […] of TCS is removed and used for analysis in TNF-R p75/80, TNF-R p55/60 and IL-8 ELISAs.
In addition, at the 24 hours timepoint, and the cells for each treatment group are collected by resuspension in 500 µl/well of THP-1 media and transferred into a FACS tube. […] The samples are run on a Becton Dickinson FaxCaliber FLOW cytometry machine and the amount of dye taken up by each cell is measured in the high red wavelength (FL3). Only cells with compromised membranes (dead or dying) can take up PI. The percent of live cells is calculated by the number of cells not stained with PI, divided by the total number of cells in the sample. The viability values calculated for the drug treated groups were compared to the viability value calculated for the vehicle treated mitogen stimulated group ("vehicle positive control") to determine the "percent change from control". This "percent change from control" value is an indicator of drug toxicity.
The quantity of soluble TNF-a, TNF-R p75/80 and TNF-R p55/60 and IL-8 in the TCS of the THP-1 cell cultures are obtained with commercially available ELISAs from R&D Systems, by extrapolation from a standard curve generated with kit standards. The number of cells that either take up or exclude PI are measured by the FLOW cytometry machine and visualized by histograms using commercially available Cytologic software for each treatment group including all controls.
Biological variability in the magnitude of the response of THP-1 cell cultures requires that experiments be compared on the basis of percent change from "vehicle positive control" for each drug concentration. Percent change in each soluble protein evaluated from the "vehicle positive control" was calculated for each compound concentration with the following formula: % Change =(pg/ml(compound) - pg/ml (veh pos control))/(pg/ml (veh pos control) - pg/ml(veh neg control))x 100 [formula]
For the soluble protein (TNF-a, p75/80, p55/60, IL-8) studies under stimulated conditions, the mean pg/ml of duplicate wells were determined and the results expressed as percent change from "vehicle positive control". For the soluble protein (p75/80 and p55/60 receptors) studies under non-stimulated conditions, the mean pg/ml of duplicate wells were determined and the results expressed as percent change from "vehicle positive control" utilizing the following formula: % Change =(pg/ml (compound neg control) - pg/ml (veh neg control)/(pg/ml (veh neg control))X 100 [formula]
IC50 values for each compound are calculated by non-linear regression analysis using customized software utilizing the JUMP statistical package.

Row | IC50 (MMP-13) | inhibition at 10 µM (MMP-1) | IC50 (MMP-9) | IC50 [1] | IC50 (MMP-1) | SMILES | inhibition at 3 µM (THP-1 cells)
1 | 2380 nM | 21% | 2830 nM | 346 nM | – | CCN(CC)CC#CCOc1ccc(S(=O)(=O)N(C)c2c(C)cc(Br)cc2C(=O)NO)cc1 [Example 66, 5-Bromo-2-{[4-(4-diethylamino-but-2-ynyloxy)-benzenesulfonyl]-methyl-amino}-N-hydroxy-3-methyl-benzamide] | 5%
2 | 312 nM | – | 830 nM | 105 nM | 1190 nM | CC#CCOc1ccc(S(=O)(=O)N(Cc2ccccc2)c2c(C)cc(C)cc2C(=O)NO)cc1 [Example 64, 2-[Benzyl-(4-but-2-ynyloxy-benzenesulfonyl)-amino]-N-hydroxy-3,5-dimethyl-benzamide] | 48%
3 | 47 nM | – | 28 nM | 42 nM | 1920 nM | CC#CCOc1ccc(S(=O)(=O)N(C)c2c(CN3CCN(C)CC3)cc(-c3ccccc3)cc2C(=O)NO)cc1 [Example 76, 4-[(4-But-2-ynyloxy-benzenesulfonyl)-methyl-amino]-5-(4-methyl-piperazin-1-ylmethyl)-biphenyl-3-carboxylic acid hydroxyamide dihydro-chloride salt] | 95%
4 | 383 nM | 39% | 790 nM | 127 nM | – | Cc1cc(Br)cc(C(=O)NO)c1N(C)S(=O)(=O)c1ccc(OCC#CCNCCN(C)C)cc1 [Example 34, 5-Bromo-2-({4-[4-(2-dimethylamino-ethylamino)-but-2-ynyloxy]-benzenesulfonyl}-methyl-amino)-N-hydroxy-3-methyl-benzamide] | 22%
5 | 935 nM | – | 671 nM | 91 nM | 1030 nM | COc1cccc(C#CCOc2ccc(S(=O)(=O)N(C)c3c(C)cc(Br)cc3C(=O)NO)cc2)c1 [Example 60, 5-Bromo-N-hydroxy-2-({4-[3-(3-methoxy-phenyl)-prop-2-ynyloxy]-benzenesulfonyl}-methyl-amino)-3-methyl-benzamide] | 1%
6 | 275 nM | – | 840 nM | 16 nM | 901 nM | CC#CCOc1ccc(S(=O)(=O)N(C)c2c(C)cc(I)cc2C(=O)NO)cc1 [Example 63, 2-[(4-But-2-ynyloxy-benzenesulfonyl)-methyl-amino]-N-hydroxy-5-iodo-3-methyl-benzamide] | 87%
7 | 1200 nM | 52% | 1510 nM | 193 nM | – | COc1ccccc1C#CCOc1ccc(S(=O)(=O)N(C)c2c(C)cc(Br)cc2C(=O)NO)cc1 [Example 61, 5-Bromo-N-hydroxy-2-({4-[3-(2-methoxy-phenyl)-prop-2-ynyloxy]-benzenesulfonyl}-methyl-amino)-3-methyl-benzamide] | 0%
8 | 724 nM | 19% | 301 nM | 44 nM | – | Cc1cc(Br)cc(C(=O)NO)c1N(C)S(=O)(=O)c1ccc(OCC#CCNC2CCC2)cc1 [Example 31, 5-Bromo-2-{[4-(4-cyclobutylamino-but-2-ynyloxy)-benzenesulfonyl]-methyl-amino}-N-hydroxy-3-methyl-benzamide] | 6%
9 | 701 nM | 53% | 389 nM | – | – | CCCCC#CCOc1ccc(S(=O)(=O)N(C)c2c(C)cc(Br)cc2C(=O)NO)cc1 [Example 56, 5-Bromo-2-[(4-hept-2-ynyloxy-benzenesulfonyl)-methyl-amino]-N-hydroxy-3-methyl-benzamide] | 16%
10 | 321 nM | – | 857 nM | 66 nM | – | Cc1cc(Br)cc(C(=O)NO)c1N(C)S(=O)(=O)c1ccc(OCC#Cc2ccccc2)cc1 [Example 59, 5-Bromo-N-hydroxy-3-methyl-2-{methyl-[4-(3-phenyl-prop-2-ynyloxy)-benzenesulfonyl]-amino}-benzamide] | 20%
11 | 154 nM | – | 304 nM | – | 1620 nM | CC#CCOc1ccc(S(=O)(=O)N(C)c2c(C)cc(Br)cc2C(=O)NO)cc1 [Example 54, 5-Bromo-2-[(4-But-2-ynyloxy-benzenesulfonyl)-methyl-amino]-N-hydroxy-3-methyl-benzamide] | 84%
12 | 83 nM | – | 477 nM | – | 3200 nM | Cc1cc(Br)cc(C(=O)NO)c1N(C)S(=O)(=O)c1ccc(OCC#CCO)cc1 [Example 70, 5-Bromo-N-hydroxy-2-{[4-(4-hydroxy-but-2-ynyloxy)-benzenesulfonyl]-methyl-amino}-3-methyl-benzamide] | 88%

Row | SMILES | IC50 (MMP-13) | inhibition at 10 µM (MMP-1) | IC50 (MMP-9) | IC50 [1] | IC50 (MMP-1) | inhibition at 3 µM (THP-1 cells)
13 | COc1ccc(S(=O)(=O)N(C)c2c(C)cc(Br)cc2C(=O)NO)cc1 [Example 36, 5-Bromo-N-hydroxy-2-[(4-methoxy-benzenesulfonyl)-methyl-amino]-3-methyl-benzamide] | 21 nM | – | 11 nM | – | – | 14%
